Columns and labels:
[1] = test system: Transkriptionsfaktors NF-κB; experiment: Electro mobility shift assay (DIG Gel Shift Kit) of NF-κB activation in TPA-stimulated Jurkat cells; type: cell-based; conditions: Phorbolester (TPA) stimulated Jurkat-Zellen; two-hour preincubation; 100, 10 and 1 ptm (Spur 3-5); Abbildung 1
Description: Einfluß von R-Ibuprofen-CoA-Thioester auf die Aktivierung des Transkriptionsfaktors NF-κB in Jurkat-Zellen. […] Spur 1 zeigt die unstimulierten, Spur 2 die stimulierten Kontrollzellen.

[2] = test system: PGHS-2 (Cyclooxygenase-2); experiment: Formation of PGHS-2 in LPS-induced monocytes (method after Brideau et al., human whole blood assay); type: cell-based; conditions: LPS-induced Monozyten, 24 Std.; R-Ibuprofenoyl-CoA 0.5, 0.25, 0.05 mM; Ibuprofen, razemisch 1.0, 0.1, 0.05 mM; Abbildung 2
Description: Inkubation von LPS-induzierten Monozyten (24 Std.). […] Methode nach: BRIDEAU, C., KARGMAN, S., LIU, S., DALLOB, A.L., EHRICH, E.W., RODGER, I.W. & CHAN, C.C. […] A human whole blood assay for clinical evaluation of biochemical efficacy of cyclooxygenase inhibitors. Inflamm. Res., 45, 68-74.

CC(C)Cc1ccc([C@@H](C)C(=O)SCCNC(=O)CCNC(=O)[C@H](O)C(C)(C)COP(=O)(O)OP(=O)(O)OC[C@H]2O[C@@H](n3cnc4c(N)ncnc43)[C@H](O)[C@@H]2OP(=O)(O)O)cc1 [R-Ibuprofen-CoA-Thioester]
Aktivierung des Transkriptionsfaktors NF-κB [1]: Aktivierungshemmung von NF-κB
Bildung von PGHS-2 (Cyclooxygenase-2) [2]: dosisabhängig zu einer Unterdrückung der Bildung von PGHS-2

— patent publication EP0977560B1 (PAZ Arzneimittel- Entwicklungsgesellschaft mbH, priority 1997, dated 1998)
